Source: publication PMC8161687, “Cytosine-5 methylation-directed construction of a Au nanoparticle-based nanosensor for simultaneous detection of multiple DNA methyltransferases at the single-molecule level” (Chemical Science, 2020)

Target: T1, CpG methyltransferase (M.SssI MTase) (Spiroplasma monobiae, UniProt P15840)
T1 construct: gene sssIM
Test: coupled GlaI / RNase HII cleavage, Cy5 release from AuNP, single-molecule TIRF counting
Format: biochemical
Conditions: 600 nM hairpin DNA HS1; 320 μM SAM; 100 U/mL M.SssI; NEBuffer 2; 37 °C, 2 h; coupled assay; free nucleoside added, covalent mechanism only cited

T1 sequence (P15840 whole entry): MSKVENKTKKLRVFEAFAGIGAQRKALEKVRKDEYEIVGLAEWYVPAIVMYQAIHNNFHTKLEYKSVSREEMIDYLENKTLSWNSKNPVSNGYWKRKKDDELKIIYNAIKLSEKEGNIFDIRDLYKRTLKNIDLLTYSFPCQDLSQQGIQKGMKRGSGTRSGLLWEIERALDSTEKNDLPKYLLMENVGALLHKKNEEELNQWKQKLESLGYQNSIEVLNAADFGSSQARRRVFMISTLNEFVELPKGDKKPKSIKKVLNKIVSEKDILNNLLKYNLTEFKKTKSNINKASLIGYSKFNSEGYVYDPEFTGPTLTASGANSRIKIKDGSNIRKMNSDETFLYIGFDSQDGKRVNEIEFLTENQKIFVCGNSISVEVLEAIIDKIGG

IC50: 640 nM
Structure (SMILES): Nc1ncn([C@H]2C[C@H](O)[C@@H](CO)O2)c(=O)n1 [decitabine]
